Where a name gives a salt, the structure may show the parent alone. A value given as a limit tells only on which side of the number the result lay.

Tested on in one data set: not listed separately
As to the kind of experiment: Physical stability of the crystalline form on exposure to humidity. The following applies: exposed to 75% RH for five days. Type of data set: physicochemical. On the procedure: A suspension of 1-(2-(4-ethoxy-6-oxo-1,6-dihydropyridin-3-yl)-4-methylpyrimidin-5-yl)-3-(5-(1,1,1-trifluoro-2-methylpropan-2-yl)isoxazol-3-yl)urea (493.5 mg) in 12.5 mL of acetone was stirred overnight while cycling the temperature between 40° C. and 5° C. Seeds of Compound A free base anhydrate were added at 5° C. The solids were isolated by vacuum filtration and dried overnight in a vacuum oven at 40° C. to give the title compound as a crystalline solid.
Consider `CCOc1cc(=O)[nH]cc1-c1ncc(NC(=O)Nc2cc(C(C)(C)C(F)(F)F)on2)c(C)n1` [Compound A free base anhydrate, 1-(2-(4-Ethoxy-6-oxo-1,6-dihydropyridin-3-yl)-4-methylpyrimidin-5-yl)-3-(5-(1,1,1-trifluoro-2-methylpropan-2-yl)isoxazol-3-yl)urea], for which the physical stability result is recorded as “physically stable”.

The target of the next data set is T1, Human RET kinase cytoplasmic domain (Homo sapiens, UniProt P07949).
T1 construct: made in house
T1 sequence (P07949 658-1114): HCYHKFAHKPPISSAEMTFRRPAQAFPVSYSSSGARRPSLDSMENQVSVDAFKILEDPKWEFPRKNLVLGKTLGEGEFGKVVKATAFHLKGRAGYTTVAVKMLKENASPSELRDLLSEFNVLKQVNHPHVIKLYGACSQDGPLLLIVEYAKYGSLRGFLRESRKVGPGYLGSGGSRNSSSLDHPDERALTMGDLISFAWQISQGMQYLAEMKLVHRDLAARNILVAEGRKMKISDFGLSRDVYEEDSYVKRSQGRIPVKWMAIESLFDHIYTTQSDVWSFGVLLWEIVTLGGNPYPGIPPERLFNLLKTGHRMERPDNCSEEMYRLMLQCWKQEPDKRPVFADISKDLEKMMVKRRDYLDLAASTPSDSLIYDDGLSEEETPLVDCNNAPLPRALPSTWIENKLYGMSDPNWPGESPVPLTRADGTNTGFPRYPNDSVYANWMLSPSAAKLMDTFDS
The experiment in a line: RET kinase enzymatic assay. Type of data set: biochemical.
Settings: not given
The gist of the method:
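GST-RET, 0.2 nM in 2× enzyme mix (HEPES, CHAPS, BSA, DTT), preincubated with inhibitor 30 min at 23 °C. Reaction for 1 h at 23 °C after adding 2× substrate mix: 20 μM ATP, 20 mM MgCl2, 1 μM biotinylated peptide. Single wells per concentration; IC50 from sigmoidal dose-response fit.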
The term IC50 denotes the concentration that gives 50% inhibition. A lower IC50 goes with greater potency in that assay. In the case of `CCOc1cc(-c2ncc(NC(=O)Nc3cc(OCCN(C)C)cc(C(F)(F)F)c3)cn2)c[nH]c1=O` [Example 178, 1-(3-(2-(dimethylamino)ethoxy)-5-(trifluoromethyl)phenyl)-3-(2-(5-ethoxy-6-oxo-1,6-dihydropyridin-3-yl)pyrimidin-5-yl)urea dihydrochloride], the concentration for half-maximal inhibition (IC50) was under 100 nM.

`CCOc1cc(-c2ncc(NC(=O)Nc3ccc(CN(C)C)c(C(F)(F)F)c3)cn2)c[nH]c1=O` [Example 179, 1-(4-((Dimethylamino)methyl)-3-(trifluoromethyl)phenyl)-3-(2-(5-ethoxy-6-oxo-1,6-dihydropyridin-3-yl)pyrimidin-5-yl)urea] showed a half-maximal inhibitory concentration (IC50) of under 100 nM.

As to `CCOc1cc(=O)[nH]cc1-c1ncc(NC(=O)Nc2cc(C(C)(C)C(F)(F)F)on2)cn1` [Example 180, 1-(2-(4-Ethoxy-6-oxo-1,6-dihydropyridin-3-yl)pyrimidin-5-yl)-3-(5-(1,1,1-trifluoro-2-methylpropan-2-yl)isoxazol-3-yl)urea hydrochloride], the half-inhibitory concentration (IC50) is under 100 nM.

The molecule `CCOc1cc(-c2ncc(NC(=O)Nc3cc(C(C)(C)C(F)(F)F)on3)cn2)c[nH]c1=O` [Example 181, 1-(2-(5-Ethoxy-6-oxo-1,6-dihydropyridin-3-yl)pyrimidin-5-yl)-3-(5-(1,1,1-trifluoro-2-methylpropan-2-yl)isoxazol-3-yl)urea hydrochloride] registered an IC50 of under 100 nM.

Consider `CCN1CCN(Cc2cc(F)c(NC(=O)Nc3cnc(-c4c[nH]c(=O)cc4OCCOC)nc3C)cc2C(F)(F)F)CC1` [Example 182, 1-(4-((4-Ethylpiperazin-1-yl)methyl)-2-fluoro-5-(trifluoromethyl)phenyl)-3-(2-(4-(2-methoxyethoxy)-6-oxo-1,6-dihydropyridin-3-yl)-4-methylpyrimidin-5-yl)urea], for which the concentration for half-maximal inhibition (IC50) was under 100 nM.

Turning to `CCOc1cc(-c2ncc(NC(=O)Nc3cc(C(F)(F)F)c(CN4CCN(CC)CC4)cc3F)cn2)c[nH]c1=O` [Example 183, 1-(2-(5-Ethoxy-6-oxo-1,6-dihydropyridin-3-yl)pyrimidin-5-yl)-3-(4-((4-ethylpiperazin-1-yl)methyl)-2-fluoro-5-(trifluoromethyl)phenyl)urea trihydrochloride], the IC50 was under 100 nM.

For `COCCOc1cc(-c2ncc(NC(=O)Nc3cc(C(F)(F)F)c(CN4CCN(C)CC4)cc3F)c(C)n2)c[nH]c1=O` [Example 184, 1-(2-Fluoro-4-((4-methylpiperazin-1-yl)methyl)-5-(trifluoromethyl)-phenyl)-3-(2-(5-(2-methoxyethoxy)-6-oxo-1,6-dihydropyridin-3-yl)-4-methylpyrimidin-5-yl)urea trihydrochloride], the IC50 was under 100 nM.

The molecule `CCOc1cc(-c2ncc(NC(=O)Nc3ccc(CC(C)(C)N)c(C(F)(F)F)c3)c(C)n2)c[nH]c1=O` [Example 185, 1-(4-(2-Amino-2-methylpropyl)-3-(trifluoromethyl)phenyl)-3-(2-(5-ethoxy-6-oxo-1,6-dihydropyridin-3-yl)-4-methylpyrimidin-5-yl)urea] came in with an IC50 of under 100 nM.

As for `CCOc1cc(=O)[nH]cc1-c1ncc(NC(=O)Nc2ccc(CC(C)(C)N)c(C(F)(F)F)c2)c(C)n1` [Example 186, 1-(4-(2-Amino-2-methylpropyl)-3-(trifluoromethyl)phenyl)-3-(2-(4-ethoxy-6-oxo-1,6-dihydropyridin-3-yl)-4-methylpyrimidin-5-yl)urea], the 50% inhibitory concentration (IC50) is under 100 nM.

`COCCOc1cc(=O)[nH]cc1-c1ncc(NC(=O)Nc2cc(C(=O)NCCN(C)C)cc(C(F)(F)F)c2)c(C)n1` [Example 187, N-(2-(dimethylamino)ethyl)-3-(3-(2-(4-(2-methoxyethoxy)-6-oxo-1,6-dihydropyridin-3-yl)-4-methylpyrimidin-5-yl)ureido)-5-(trifluoromethyl)benzamide] came in with a concentration for half-maximal inhibition (IC50) of under 100 nM.

Take `CCOc1cc(-c2ncc(NC(=O)Nc3cc(C(F)(F)F)c(CN(C)C)cc3F)cn2)c[nH]c1=O` [Example 188, 1-(4-((Dimethylamino)methyl)-2-fluoro-5-(trifluoromethyl)phenyl)-3-(2-(5-ethoxy-6-oxo-1,6-dihydropyridin-3-yl)pyrimidin-5-yl)urea dihydrochloride]: the 50% inhibitory concentration (IC50) is under 100 nM.

The molecule `CCOc1cc(-c2ncc(NC(=O)Nc3cc(C(=O)NCCN(C)C)cc(C(F)(F)F)c3)cn2)c[nH]c1=O` [Example 189, N-(2-(Dimethylamino)ethyl)-3-(3-(2-(5-ethoxy-6-oxo-1,6-dihydropyridin-3-yl)-pyrimidin-5-yl)ureido)-5-(trifluoromethyl)benzamide] yielded a concentration for half-maximal inhibition (IC50) of under 100 nM.

For the molecule `CCOc1cc(-c2ncc(NC(=O)Nc3cc(C(F)(F)F)c(CN(C)C)cc3F)c(C)n2)c[nH]c1=O` [Example 190, 1-(4-((Dimethylamino)methyl)-2-fluoro-5-(trifluoromethyl)phenyl)-3-(2-(5-ethoxy-6-oxo-1,6-dihydropyridin-3-yl)-4-methylpyrimidin-5-yl)urea dihydrochloride], the IC50 was under 100 nM.

`CCOc1cc(=O)[nH]cc1-c1ncc(NC(=O)Nc2cc(C(F)(F)F)c(CN3CCN(CC)CC3)cc2F)c(C)n1` [Example 191, 1-(2-(4-Ethoxy-6-oxo-1,6-dihydropyridin-3-yl)-4-methylpyrimidin-5-yl)-3-(4-((4-ethylpiperazin-1-yl)methyl)-2-fluoro-5-(trifluoromethyl)phenyl)urea trihydrochloride] came in with a 50% inhibitory concentration (IC50) of under 100 nM.
